# Literature values in patent US20140141213A1, “PHOTOCURABLE INK COMPOSITION, INK JET RECORDING METHOD, RECORDED MATTER, INK SET, INK CARTRIDGE, AND RECORDING APPARATUS” (Seiko Epson Corporation, priority 2009, published 2014).
# Settings: primary irritation index
row,Compound,P.I.I
1,"C=CC(=O)OCC1COC(C)(CC(C)C)O1 (centres unmarked) [(2-Methyl-2-isobutyl-1,3-dioxolane-4-yl)methyl acrylate]",1.0
2,"C=C(C)C(=O)OCC(O)COC(=O)C(=C)C [2-Hydroxy-1,3-dimethacryloxypropane]",0.6
3,C=C(C)C(=O)OCCOCCOCCOCCOC(=O)C(=C)C [Tetraethylene glycol dimethacrylate],0.5
4,C=C(C)C(=O)OCC(C)(C)COC(=O)C(=C)C [Neopentyl glycol dimethacrylate],0.0
5,C=CC(=O)OCCOc1ccccc1 [Phenoxyethyl acrylate],1.7
6,Polyethylene glycol #400 diacrylate,0.4
7,Trimethylolpropane-modified triacrylate,1.5
8,"C=CC(=O)OCCCCCCCCCOC(=O)C=C [1,9-Nonanediol diacrylate]",2.0
9,C=C(C)C(=O)OCCOCCOC(=O)C(=C)C [Diethylene glycol dimethacrylate],0.5
10,C=C(C)C(=O)OCCOC(=O)C(=C)C [Ethylene glycol dimethacrylate],0.6
11,"C=CC(=O)OCC1COC(C)(CC)O1 (centres unmarked) [(2-Methyl-2-ethyl-1,3-dioxolane-4-yl)methyl acrylate]",1.3
12,C=CC(=O)O[C@@H]1C[C@H]2CC[C@]1(C)C2(C)C [Isobornyl acrylate],0.6
13,Trimethylolpropane PO-modified triacrylate,0.1
14,"C=C(C)C(=O)OCCCCCCOC(=O)C(=C)C [1,6-Hexanediol dimethacrylate]",0.5
15,C=CC(=O)OCCOCCOC [Methoxy diethylene glycol monoacrylate],0.7
16,C=C(C)C(=O)OCC(CC)(COC(=O)C(=C)C)COC(=O)C(=C)C [Trimethylolpropane trimethacrylate],0.8
17,C=CC(=O)OCC(C)OCC(C)OCC(C)OC(=O)C=C (centres unmarked) [Tripropylene glycol diacrylate],1.6
